The text below walks through data of US10906938B2, “Cell epitopes and combination of cell epitopes for use in the immunotherapy of myeloma and other cancers” (Immatics Biotechnologies GmbH, priority 2015, dated 2021).

The subject of this assay is U266 cells. Put plainly: HLA class I ligand presentation upon carfilzomib treatment on U266 cells (LC-MS/MS). Particulars: U266 cells, vs mock-treated controls; for modulation upon carfilzomib-treatment 24 #1 / modulation upon carfilzomib-treatment 24 #2 / modulation upon carfilzomib-treatment 24 #3: 24 h after carfilzomib treatment (100 nM, 1 h); for modulation upon carfilzomib-treatment 24 #1 / modulation upon carfilzomib-treatment 48 #1: biological replicate #1; for modulation upon carfilzomib-treatment 24 #2 / modulation upon carfilzomib-treatment 48 #2: biological replicate #2; for modulation upon carfilzomib-treatment 24 #3 / modulation upon carfilzomib-treatment 48 #3: biological replicate #3; for modulation upon carfilzomib-treatment 48 #1 / modulation upon carfilzomib-treatment 48 #2 / modulation upon carfilzomib-treatment 48 #3: 48 h after carfilzomib treatment (100 nM, 1 h). It counts as cell-based, human. On the set-up: key to modulation upon carfilzomib-treatment 24 #1 / modulation upon carfilzomib-treatment 24 #2 / modulation upon carfilzomib-treatment 24 #3 / modulation upon carfilzomib-treatment 48 #1 / modulation upon carfilzomib-treatment 48 #2 / modulation upon carfilzomib-treatment 48 #3: −1: significantly down-modulated; 0: not signifcant/not detected; 1: significantly up-modulated. On the procedure: HLA class I and II molecules were isolated using standard immunoaffinity purification as described using the pan-HLA class I specific mAb W6/32, the pan-HLA class II specific mAb T039 and the HLA-DR specific mAB L243 (produced in house).
HLA ligand extracts were analyzed in 5 technical replicates as described previously. In brief, peptide samples were separated by nanoflow HPLC (RSLCnano, ThermoFisher) using a 50 μm×25 cm PepMap RSLC column (Thermo Fisher) and a gradient ranging from 2.4 to 32.0% acetonitrile over the course of 90 min. Eluting peptides were analyzed in an online coupled LTQ Orbitrap XL mass spectrometer (Thermo Fisher) using a top 5 CID (collision induced dissociation) fragmentation method.
Data processing was performed as described previously. In brief, the Mascot search engine (Mascot 2.2.04; Matrix Science, London, UK) was implemented to search the human proteome as comprised in the Swiss-Prot database (20,279 reviewed protein sequences, September 2013) without enzymatic restriction. Potential mutated HLA ligands were searched implementing a database containing the human proteome concatenated with proteins containing single amino acid variants (SAVs) listed in the COSMIC database (http://cancer.sanger.ac.uk/cosmic/). Only recurrent SAVs described in 2 or more samples of hematological origin were included. Oxidized methionine was allowed as a dynamic modification. The false discovery rate was estimated using the Percolator algorithm and set to 5%. Peptide lengths were limited to 8-12 amino acids for HLA class I and 12-25 amino acids for HLA class II. Protein inference was disabled, allowing for multiple protein annotations of peptides. HLA annotation was performed using SYFPEITHI [46] or an extended in-house database. Experimental validation of peptide identifications and HLA annotations was performed by mass spectrometric and functional characterization of synthetic peptides for a subset of peptides.
The inventors quantitatively assessed HLA class I ligand presentation during proteasome inhibitor therapy. Observed was a considerable plasticity of the HLA class I ligandome after treatment with carfilzomib with 17.9±1.1% of MM.1S ligands and 11.2±0.7% of U266 ligands (mean of three biological replicates ±s.d.) showing significant modulation (fold-change ≥4, Po0.01 after Benjamini-Hochberg correction) at t24 h compared with mock-treated controls. Briefly, Cultured MCLs (MM.1S and U266) and primary myeloma samples were incubated with carfilzomib (100 nM, Kyprolis®, available, e.g., from Onyx Pharmaceuticals, Inc.) as an example for a proteasome inhibitor for a 1-h period, followed by three washes in PBS (Gibco) and recultured for additional 24 or 48 h. Controls were incubated with vehicle control (glucose 5%) for 1 h, followed by identical washing and incubation for 24 or 48 h. Experiments were conducted in three biological replicates where indicated.

On to GPRPITQSEL, for which the “modulation upon carfilzomib-treatment 24 #1” value is 0, the “modulation upon carfilzomib-treatment 24 #2” value amounted to 0, the “modulation upon carfilzomib-treatment 24 #3” value is 0 and the “modulation upon carfilzomib-treatment 48 #1” value stood at 0. The “modulation upon carfilzomib-treatment 48 #2” value was 0 and the “modulation upon carfilzomib-treatment 48 #3” value turned out to be 0.

On to RPFHGWTSL, for which the “modulation upon carfilzomib-treatment 24 #1” value is on record as 0, the “modulation upon carfilzomib-treatment 24 #2” value stood at 0, the “modulation upon carfilzomib-treatment 24 #3” value worked out at 0 and the “modulation upon carfilzomib-treatment 48 #1” value came to 0. Also, the “modulation upon carfilzomib-treatment 48 #2” value turned out to be 0 and the “modulation upon carfilzomib-treatment 48 #3” value is given as 0.

Take GETAFAFHL: the “modulation upon carfilzomib-treatment 24 #1” value is 0, the “modulation upon carfilzomib-treatment 24 #2” value is given as 0, the “modulation upon carfilzomib-treatment 24 #3” value is on record as 0 and the “modulation upon carfilzomib-treatment 48 #1” value turned out to be 0. Further, the “modulation upon carfilzomib-treatment 48 #2” value was found to be 0 and the “modulation upon carfilzomib-treatment 48 #3” value stood at 0.

For the sequence RPRPPVLSV, the “modulation upon carfilzomib-treatment 24 #1” value is given as 0, the “modulation upon carfilzomib-treatment 24 #2” value was determined as 0, the “modulation upon carfilzomib-treatment 24 #3” value stood at 0 and the “modulation upon carfilzomib-treatment 48 #1” value was determined as 0. For the same sequence, the “modulation upon carfilzomib-treatment 48 #2” value is given as 0 and the “modulation upon carfilzomib-treatment 48 #3” value came to 0.

In the case of SVYSPVKKK, the “modulation upon carfilzomib-treatment 24 #1” value worked out at 0, the “modulation upon carfilzomib-treatment 24 #2” value turned out to be 0, the “modulation upon carfilzomib-treatment 24 #3” value is −1 and the “modulation upon carfilzomib-treatment 48 #1” value is reported as 0. The “modulation upon carfilzomib-treatment 48 #2” value was found to be 0 and the “modulation upon carfilzomib-treatment 48 #3” value is 0.

With PELGPLPAL, the “modulation upon carfilzomib-treatment 24 #1” value was 0, the “modulation upon carfilzomib-treatment 24 #2” value is 0, the “modulation upon carfilzomib-treatment 24 #3” value is reported as 0 and the “modulation upon carfilzomib-treatment 48 #1” value was 0. The “modulation upon carfilzomib-treatment 48 #2” value was 0 and the “modulation upon carfilzomib-treatment 48 #3” value is recorded as 0.

Turning to APRHPSTNSLL, the “modulation upon carfilzomib-treatment 24 #1” value is 0, the “modulation upon carfilzomib-treatment 24 #2” value is on record as 1, the “modulation upon carfilzomib-treatment 24 #3” value came out at 0 and the “modulation upon carfilzomib-treatment 48 #1” value was 1. Moreover, the “modulation upon carfilzomib-treatment 48 #2” value stood at 1 and the “modulation upon carfilzomib-treatment 48 #3” value amounted to 0.

On to RVAKTNSLR, for which the “modulation upon carfilzomib-treatment 24 #1” value was 0, the “modulation upon carfilzomib-treatment 24 #2” value came to 0, the “modulation upon carfilzomib-treatment 24 #3” value is given as 0 and the “modulation upon carfilzomib-treatment 48 #1” value is 0. Also, the “modulation upon carfilzomib-treatment 48 #2” value is on record as 0 and the “modulation upon carfilzomib-treatment 48 #3” value came out at 0.

In the case of SPRLSLLYL, the “modulation upon carfilzomib-treatment 24 #1” value stood at 0, the “modulation upon carfilzomib-treatment 24 #2” value was found to be 0, the “modulation upon carfilzomib-treatment 24 #3” value came to 0 and the “modulation upon carfilzomib-treatment 48 #1” value amounted to 0. Further, the “modulation upon carfilzomib-treatment 48 #2” value was 0 and the “modulation upon carfilzomib-treatment 48 #3” value came out at 0.

On to SESLPVRTL, for which the “modulation upon carfilzomib-treatment 24 #1” value is listed as 0, the “modulation upon carfilzomib-treatment 24 #2” value is 0, the “modulation upon carfilzomib-treatment 24 #3” value amounted to 0 and the “modulation upon carfilzomib-treatment 48 #1” value is reported as 0. Also, the “modulation upon carfilzomib-treatment 48 #2” value is 0 and the “modulation upon carfilzomib-treatment 48 #3” value is given as 0.

For RQFWTRTKK, the “modulation upon carfilzomib-treatment 24 #1” value came out at 0, the “modulation upon carfilzomib-treatment 24 #2” value came out at 0, the “modulation upon carfilzomib-treatment 24 #3” value is 0 and the “modulation upon carfilzomib-treatment 48 #1” value was found to be 0. In addition, the “modulation upon carfilzomib-treatment 48 #2” value is given as 0 and the “modulation upon carfilzomib-treatment 48 #3” value was determined as 0.

Take ILWETVPSM: the “modulation upon carfilzomib-treatment 24 #1” value stood at 0, the “modulation upon carfilzomib-treatment 24 #2” value is given as 0, the “modulation upon carfilzomib-treatment 24 #3” value is listed as 0 and the “modulation upon carfilzomib-treatment 48 #1” value turned out to be 0. In addition, the “modulation upon carfilzomib-treatment 48 #2” value was 0 and the “modulation upon carfilzomib-treatment 48 #3” value is 0.

Take KPSTKALVL: the “modulation upon carfilzomib-treatment 24 #1” value came out at 0, the “modulation upon carfilzomib-treatment 24 #2” value was 0, the “modulation upon carfilzomib-treatment 24 #3” value is on record as 0 and the “modulation upon carfilzomib-treatment 48 #1” value is 0. Besides, the “modulation upon carfilzomib-treatment 48 #2” value is recorded as 0 and the “modulation upon carfilzomib-treatment 48 #3” value is reported as 0.

Consider KEGLILPETL, for which the “modulation upon carfilzomib-treatment 24 #1” value is on record as 1, the “modulation upon carfilzomib-treatment 24 #2” value is 1, the “modulation upon carfilzomib-treatment 24 #3” value was 0 and the “modulation upon carfilzomib-treatment 48 #1” value came to 0. Also, the “modulation upon carfilzomib-treatment 48 #2” value came to 0 and the “modulation upon carfilzomib-treatment 48 #3” value is recorded as 0.

In the case of IESHPDNAL, the “modulation upon carfilzomib-treatment 24 #1” value came to 0, the “modulation upon carfilzomib-treatment 24 #2” value amounted to 0, the “modulation upon carfilzomib-treatment 24 #3” value stood at 0 and the “modulation upon carfilzomib-treatment 48 #1” value was 0. For the same sequence, the “modulation upon carfilzomib-treatment 48 #2” value is given as 0 and the “modulation upon carfilzomib-treatment 48 #3” value is recorded as 0.

Take SRGDFVVEY: the “modulation upon carfilzomib-treatment 24 #1” value worked out at 0, the “modulation upon carfilzomib-treatment 24 #2” value was −1, the “modulation upon carfilzomib-treatment 24 #3” value came to 0 and the “modulation upon carfilzomib-treatment 48 #1” value worked out at 0. Further, the “modulation upon carfilzomib-treatment 48 #2” value came out at 0 and the “modulation upon carfilzomib-treatment 48 #3” value is listed as −1.

For SPRQALTDF, the “modulation upon carfilzomib-treatment 24 #1” value worked out at 0, the “modulation upon carfilzomib-treatment 24 #2” value is reported as 0, the “modulation upon carfilzomib-treatment 24 #3” value amounted to 0 and the “modulation upon carfilzomib-treatment 48 #1” value came out at 0. For the same sequence, the “modulation upon carfilzomib-treatment 48 #2” value is 0 and the “modulation upon carfilzomib-treatment 48 #3” value amounted to 0.

Consider ILRDGITAGK, for which the “modulation upon carfilzomib-treatment 24 #1” value turned out to be 0, the “modulation upon carfilzomib-treatment 24 #2” value was 0, the “modulation upon carfilzomib-treatment 24 #3” value is 0 and the “modulation upon carfilzomib-treatment 48 #1” value is reported as 0. Also, the “modulation upon carfilzomib-treatment 48 #2” value came out at 0 and the “modulation upon carfilzomib-treatment 48 #3” value was 0.

Turning to AEQEIARLVL, the “modulation upon carfilzomib-treatment 24 #1” value was determined as 0, the “modulation upon carfilzomib-treatment 24 #2” value was 0, the “modulation upon carfilzomib-treatment 24 #3” value worked out at 0 and the “modulation upon carfilzomib-treatment 48 #1” value was 0. The “modulation upon carfilzomib-treatment 48 #2” value was found to be 0 and the “modulation upon carfilzomib-treatment 48 #3” value is listed as 0.

As for LLFPYILPPK, the “modulation upon carfilzomib-treatment 24 #1” value came out at 0, the “modulation upon carfilzomib-treatment 24 #2” value is on record as 0, the “modulation upon carfilzomib-treatment 24 #3” value was determined as 0 and the “modulation upon carfilzomib-treatment 48 #1” value came out at 0. Moreover, the “modulation upon carfilzomib-treatment 48 #2” value was determined as 0 and the “modulation upon carfilzomib-treatment 48 #3” value was 0.

In the case of IIFDRPLLY, the “modulation upon carfilzomib-treatment 24 #1” value worked out at 0, the “modulation upon carfilzomib-treatment 24 #2” value is 0, the “modulation upon carfilzomib-treatment 24 #3” value is listed as 0 and the “modulation upon carfilzomib-treatment 48 #1” value is given as 0. Further, the “modulation upon carfilzomib-treatment 48 #2” value is given as 0 and the “modulation upon carfilzomib-treatment 48 #3” value is given as −1.

For GEVQDLLVRL, the “modulation upon carfilzomib-treatment 24 #1” value was 0, the “modulation upon carfilzomib-treatment 24 #2” value is 0, the “modulation upon carfilzomib-treatment 24 #3” value is listed as 0 and the “modulation upon carfilzomib-treatment 48 #1” value was 0. The “modulation upon carfilzomib-treatment 48 #2” value is given as 0 and the “modulation upon carfilzomib-treatment 48 #3” value stood at 0.
